# Article PMC12198407, “Preclinical and first-in-human of purinostat mesylate, a novel selective HDAC I/IIb inhibitor, in relapsed/refractory multiple myeloma and lymphoma” (Signal Transduction and Targeted Therapy, 2025)
# Read-outs that look alike come from different tables or passages of the source.
# Columns and labels:
# [1] = tested on: human double-hit lymphoma SUDHL-6; assay: SUDHL-6 subcutaneous tumor model; type: in vivo, NOD/SCID mice; conditions: for median survival time: satellite group
# HDAC6 = HDAC6 (Homo sapiens, UniProt Q9UBN7); assay: HDAC enzyme activity in vitro; type: biochemical
# HDAC7 = HDAC7 (Homo sapiens, UniProt Q8WUI4); assay: HDAC enzyme activity in vitro; type: biochemical
# [2] = tested on: human Burkitt lymphoma Daudi; assay: Daudi subcutaneous tumor model; type: in vivo, NOD/SCID mice; conditions: for average median survival time: satellite group
# [3] = tested on: RPMI-8226 xenograft (TP53 E285K); assay: RPMI-8226 xenograft mouse model, PM+Pd combination; type: in vivo, NOD-SCID mice; conditions: PM 5 mg/kg; Dara+Bort+DXM 5+0.1+1; Pd 2.5+1; PM+Pd 5+2.5+1 mg/kg
# Experimental: Mice received subcutaneous inoculation with 0.5 × 10^7 MM1S or RPMI-8226 cells, to establish xenograft models. […] When tumors reached 150–250 mm^3, mice were treated with various compounds. PM and panobinostat were administered intravenously three times a week at 5 mg/kg in combination therapy. […] Tumor volume (tumor volume (mm^3) = π/6 × length × width^2) and body weights were measured every two days. At the end, tumor tissues were weighed, and antitumor activity was evaluated by the tumor inhibition rate = (1 − tumor weight of treatment group/tumor weight of vehicle group) × 100%.
# [4] = Metabolic stability in liver microsomes; type: in vitro ADME; conditions: for half-life at 1 µM: NADPH, 37°C; for CLint scaled at 1 µM: read-out: liver intrinsic clearance (CLint)
# Experimental: The metabolic stability of Purinostat Mesylate was evaluated in CD-1 mice, SD rats, Beagle dogs, crab-eating monkeys, and human liver microsomes. Under conditions of 37°C, 1 µM of Purinostat Mesylate was incubated with liver microsomes from the five species mentioned above, supplemented with a NADPH regeneration system, for varying durations up to 60 minutes. The concentration of Purinostat Mesylate in the resulting samples was analyzed using LC/MS/MS.
# [5] = Intravenous vascular irritation test; type: in vivo, rabbits; conditions: 0.204 mg/mL, 10 mL/kg, 5 days
# Experimental: This experiment included a blank formulation group of injectable Purinostat Mesylate and an injectable Purinostat Mesylate group, with 8 Japanese White Rabbits in each group, evenly divided by sex. The injectable Purinostat Mesylate group received an intravenous infusion of 0.204 mg/mL (the maximum intended clinical concentration) at a volume of 10 mL/kg via the right ear marginal vein. The blank formulation group received an intravenous infusion of hydroxypropyl beta-cyclodextrin at the same dose as the injectable Purinostat Mesylate group. Each rabbit in both groups also received an equal volume of 0.9% sodium chloride injection via the left ear marginal vein as a self-control. The administration was performed once daily for a total of 5 consecutive days, with the first day of administration defined as Day 1 of the experiment. During the study, the general condition of the rabbits and the injection site were monitored daily. Approximately 72 hours and 16 days after administration, 4 rabbits from each group were euthanized for gross anatomical observation of the injection site, and blood vessels and surrounding tissues from the injection site were collected for histopathological examination.
# mouse B-cell lymphoma = assay: Ighmyc transgenic B-cell lymphoma model, survival; type: in vivo, mice
# [6] = tested on: hematological tumor cells; assay: Proliferation, MTT or Alamar Blue; type: cell-based; conditions: Homo sapiens
# bone destruction = assay: Micro-CT of femur, 5TMM model; type: in vivo, C57BL/KawRij mice; conditions: 10 mg/kg for 4 weeks
# Experimental: The cMYC-KRAS12V-induced plasmacytoma mouse model in BALB/c (GemPharmatech Co., Ltd., Nanjing, China) was established as previously described.[33] On day 28 or 35 post bone marrow transplantation, recipients received various treatments. The 5TMM mouse model was established as previously described.[55] The 5TGM1-luc cells were intravenously injected into 6-week-old C57BL/KawRij mice (Harlan Co. Netherlands) with 2 × 10^6 cells per mouse. After three weeks, mice were treated with vehicle or PM 10 mg/kg. Serum Ca^2+ levels were monitored weekly for three weeks after the start of administration. Kaplan-Meier survival curves were generated for each treatment group. Additionally, the 5TMM mouse model studying PM’s effects on immune response and bone destruction involved randomizing mice into vehicle and PM (10 mg/kg) groups one week after inoculation. T cell subsets were analyzed by flow cytometry 24 h after a single dose and 1 month after vehicle or PM treatment. The mice were sacrificed after 1 month of treatment, and the bone destruction was detected by Micro-CT.
# [7] = tested on: diffuse large B-cell lymphoma (DLBCL) cells from patient C; assay: Cell apoptosis analysis, primary cells; type: cell-based, human; conditions: 5 nM, 48 h
# Experimental: (§1) CD138^+, CD38^+, or CD20^+ primary cells were obtained from plasma cell leukemia patients and DLBCL patients who had relapsed after multiple drug therapies. These patient samples were sourced from West China Hospital and had been approved by the clinical ethics committee of West China Hospital of Sichuan University (Chengdu, China). The clinical information of these patients was summarized in Supplementary Table 2. The patient primary cells were cultured in 6-well plates at a density of 1×10^6 cells/mL, and treated with control, PM, panobinostat, Pom and DXM at indicated concentrations for 48 hours. CD138, CD38, and CD20 monoclonal antibodies, Annexin V-APC and 7AAD apoptosis detection kits were used following the manufacturer’s instructions. The apoptosis cells were analyzed by flow cytometry (Thermo, AttuneTMNxT).
# [8] = tested on: primary MM cells from relapsed patients A and B; assay: Cell apoptosis analysis, primary cells; type: cell-based, human; conditions: 5 nM, 48 h
# Experimental: as §1
# [9] = tested on: class IIb HDAC substrate α-tubulin in SUDHL-6, Daudi, Raji, Ramos, RPMI-8226; assay: Cellular acetylation of α-tubulin; type: cell-based, human
# Excerpt: The results of these cell experiments were consistent with the in vitro enzyme activity assay results.
# Solubility of the API = type: physicochemical
# HDAC6, sequence (Q9UBN7 whole entry): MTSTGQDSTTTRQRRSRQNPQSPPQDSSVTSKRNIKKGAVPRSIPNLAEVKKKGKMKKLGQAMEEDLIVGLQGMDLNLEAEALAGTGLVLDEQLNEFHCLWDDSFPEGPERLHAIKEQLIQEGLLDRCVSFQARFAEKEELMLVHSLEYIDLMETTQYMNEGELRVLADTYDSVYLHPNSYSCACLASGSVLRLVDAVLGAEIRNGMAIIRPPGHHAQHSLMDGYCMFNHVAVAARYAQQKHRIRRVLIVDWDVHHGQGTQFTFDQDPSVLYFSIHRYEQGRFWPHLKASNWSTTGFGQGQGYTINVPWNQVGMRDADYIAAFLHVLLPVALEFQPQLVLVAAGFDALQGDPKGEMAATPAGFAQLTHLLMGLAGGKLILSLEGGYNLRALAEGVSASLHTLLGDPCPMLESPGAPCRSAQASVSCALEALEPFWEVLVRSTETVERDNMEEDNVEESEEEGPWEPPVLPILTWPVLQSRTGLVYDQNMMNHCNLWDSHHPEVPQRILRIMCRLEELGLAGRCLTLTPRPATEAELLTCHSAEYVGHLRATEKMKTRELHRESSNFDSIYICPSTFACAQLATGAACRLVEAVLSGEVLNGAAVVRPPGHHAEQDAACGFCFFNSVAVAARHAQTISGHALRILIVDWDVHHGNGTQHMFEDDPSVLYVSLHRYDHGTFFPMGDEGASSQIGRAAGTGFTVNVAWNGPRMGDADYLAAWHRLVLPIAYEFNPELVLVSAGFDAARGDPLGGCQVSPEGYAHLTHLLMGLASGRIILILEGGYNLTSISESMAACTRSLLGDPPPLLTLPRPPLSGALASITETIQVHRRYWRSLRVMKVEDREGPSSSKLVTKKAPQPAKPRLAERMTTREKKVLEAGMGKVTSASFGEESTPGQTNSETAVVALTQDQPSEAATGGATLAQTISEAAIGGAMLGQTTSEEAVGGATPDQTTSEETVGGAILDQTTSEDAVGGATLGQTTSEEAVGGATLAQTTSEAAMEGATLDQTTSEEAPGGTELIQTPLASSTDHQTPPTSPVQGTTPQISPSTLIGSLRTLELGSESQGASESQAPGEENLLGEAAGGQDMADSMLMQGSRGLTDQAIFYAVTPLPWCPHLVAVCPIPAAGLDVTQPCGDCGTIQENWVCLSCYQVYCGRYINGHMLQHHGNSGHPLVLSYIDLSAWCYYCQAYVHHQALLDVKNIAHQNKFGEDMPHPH
# HDAC7, sequence (Q8WUI4 whole entry): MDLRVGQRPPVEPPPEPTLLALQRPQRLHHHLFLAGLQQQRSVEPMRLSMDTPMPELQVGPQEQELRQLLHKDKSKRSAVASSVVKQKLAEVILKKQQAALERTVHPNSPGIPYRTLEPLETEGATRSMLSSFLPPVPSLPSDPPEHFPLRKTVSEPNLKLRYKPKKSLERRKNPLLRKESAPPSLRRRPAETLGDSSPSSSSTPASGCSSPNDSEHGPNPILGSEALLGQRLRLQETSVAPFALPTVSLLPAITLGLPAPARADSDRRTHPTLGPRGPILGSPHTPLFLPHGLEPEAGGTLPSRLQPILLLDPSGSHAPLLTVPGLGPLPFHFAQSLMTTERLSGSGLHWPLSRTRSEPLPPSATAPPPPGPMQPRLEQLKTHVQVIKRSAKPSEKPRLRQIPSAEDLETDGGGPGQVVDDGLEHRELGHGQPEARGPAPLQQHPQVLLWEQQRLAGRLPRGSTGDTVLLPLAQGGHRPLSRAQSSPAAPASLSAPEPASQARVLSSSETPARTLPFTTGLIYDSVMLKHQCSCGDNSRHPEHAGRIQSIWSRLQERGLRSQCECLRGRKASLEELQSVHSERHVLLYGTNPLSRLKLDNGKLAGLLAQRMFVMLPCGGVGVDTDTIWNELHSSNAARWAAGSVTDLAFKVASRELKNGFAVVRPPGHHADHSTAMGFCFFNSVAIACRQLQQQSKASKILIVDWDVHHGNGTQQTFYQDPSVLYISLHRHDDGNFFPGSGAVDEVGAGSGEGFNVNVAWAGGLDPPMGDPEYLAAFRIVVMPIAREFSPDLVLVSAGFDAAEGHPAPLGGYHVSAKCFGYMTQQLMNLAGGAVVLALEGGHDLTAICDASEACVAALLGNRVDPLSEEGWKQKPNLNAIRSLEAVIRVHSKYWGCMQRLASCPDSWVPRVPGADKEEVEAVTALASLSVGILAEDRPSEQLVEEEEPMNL
structure (smiles),measurement,setting,value
"CN(Cc1nc2c(N3CCOCC3)nc(-c3ccc(N)cc3)nc2n1C)c1ncc(C(=O)NO)cn1.CS(=O)(=O)O [PM, 2-(((2-(4-Aminophenyl)-9-methyl-6-(4-morpholinyl)-9H-purine-8-yl)methyl)methylamino)-N-hydroxy-5-pyrimidine-carboxamide Mesylate]",T/C,[1]; 2.5 mg/kg,47.88±9.41%
same,tumor inhibition rate,"[1]; 2.5 mg/kg i.v. three times a week, mean of two batches",58.99±2.32%
same,T/C,[1]; 5 mg/kg,34.37±3.79%
same,tumor inhibition rate,[1]; 5 mg/kg,69.35±3.47%
same,T/C,[1]; 10 mg/kg,29.62±1.77%
same,tumor inhibition rate,[1]; 10 mg/kg,75.81±8.28%
same,T/C,[1]; 20 mg/kg,21.28±6.72%
same,tumor inhibition rate,[1]; 20 mg/kg,81.40±5.38%
same,median survival time,"[1]; 10 mg/kg, death = tumor 3000 mm³",30 days
same,median survival time,[1]; 20 mg/kg,30 days
same,IC50,HDAC6,11.5 nM
same,PAD,Mouse,2.5 mg/kg
same,"MRSD from MTD, most sensitive species","beagle, dog",3.33 mg/m²
same,equivalent human dose of exposure at dog HNSTD,"beagle, dog",36.88 mg/m²
same,IC50,HDAC7,590 nM
same,T/C,[2]; 2.5 mg/kg,17.75±2.47%
same,tumor inhibition rate,"[2]; 2.5 mg/kg, mean of two batches",82.84 ± 2.18%
same,T/C,[2]; 5 mg/kg,10.40±2.97%
same,tumor inhibition rate,[2]; 5 mg/kg,87.86 ± 2.38%
same,T/C,[2]; 10 mg/kg,7.35±3.75%
same,tumor inhibition rate,[2]; 10 mg/kg,90.86 ± 3.84%
same,median survival time,"[2]; 20 mg/kg, paused day 28, resumed day 35",54.4 days
same,average median survival time,[2]; 5 mg/kg,54.5 ± 5.0 days
same,average median survival time,[2]; 10 mg/kg,58.5 ± 2.1 days
same,tumor inhibition rate,[3],86.05%
same,half-life at 1 µM,"[4]; Beagle, dog",1.63 h
same,CLint scaled at 1 µM,"[4]; Beagle, dog",20.4 mL/min/kg
same,half-life at 1 µM,"[4]; CD-1, mouse",> 3.1 h
same,CLint scaled at 1 µM,"[4]; CD-1, mouse",< 29.7 mL/min/kg
same,half-life at 1 µM,"[4]; SD, rat",> 3.1 h
same,CLint scaled at 1 µM,"[4]; SD, rat",< 13.5 mL/min/kg
same,half-life at 1 µM,[4]; human,> 3.1 h
same,CLint scaled at 1 µM,[4]; human,< 6.8 mL/min/kg
same,half-life at 1 µM,[4]; monkey,0.0517 h
same,CLint scaled at 1 µM,[4]; monkey,598 mL/min/kg
same,irritation at the injection site,[5],did not cause irritation at the injection site
same,median survival time,"mouse B-cell lymphoma; 2.5 mg/kg, solvent control 10.5 days",19.5 days
same,median survival time,mouse B-cell lymphoma; 5 mg/kg,23 days
same,median survival time,mouse B-cell lymphoma; 10 mg/kg,22.5 days
same,IC50,"[6]; read-out: IC50, hematological tumor cells",< 10 nM
same,IC50,"[6]; some cell lines, read-out: IC50, hematological tumor cell lines",< 1 nM
same,bone structure of femur (Micro-CT),bone destruction,effectively prevented bone destruction and trabecular changes on the femoral surface
same,apoptosis,[7],82.1%
same,apoptosis,[8]; patient A,92.9%
same,apoptosis,[8]; patient B,82.0%
same,concentration inducing increased acetylation of α-tubulin,[9],3 to 10 nM
same,Solubility,Solubility of the API; 0.1 mol/L hydrochloric acid solution,practically insoluble
same,Solubility,Solubility of the API; 0.1 mol/L sodium hydroxide solution,very slightly soluble
same,Solubility,Solubility of the API; dimethyl sulfoxide,soluble
same,Solubility,Solubility of the API; dimethylformamide,slightly soluble
same,Solubility,"Solubility of the API; ethanol, ethyl acetate, or chloroform",practically insoluble
same,Solubility,Solubility of the API; methanol,very slightly soluble
